Values of other authors in patent US20260000626A1, “POLYMERIC NANOPARTICLES FOR LONG ACTING DELIVERY OF A PEPTIDE AND METHODS OF MAKING AND USING THEREOF” (Brown University, priority 2022, published 2026).

Key:
GLP-1 receptor [1] = target: T1, GLP-1 receptor (Homo sapiens, UniProt P43220); details: vs intact GLP-1
GLP-1 receptor [2] = target: T1, GLP-1 receptor; details: negligible agonistic activity

T1 sequence (P43220 24-463, species assumed): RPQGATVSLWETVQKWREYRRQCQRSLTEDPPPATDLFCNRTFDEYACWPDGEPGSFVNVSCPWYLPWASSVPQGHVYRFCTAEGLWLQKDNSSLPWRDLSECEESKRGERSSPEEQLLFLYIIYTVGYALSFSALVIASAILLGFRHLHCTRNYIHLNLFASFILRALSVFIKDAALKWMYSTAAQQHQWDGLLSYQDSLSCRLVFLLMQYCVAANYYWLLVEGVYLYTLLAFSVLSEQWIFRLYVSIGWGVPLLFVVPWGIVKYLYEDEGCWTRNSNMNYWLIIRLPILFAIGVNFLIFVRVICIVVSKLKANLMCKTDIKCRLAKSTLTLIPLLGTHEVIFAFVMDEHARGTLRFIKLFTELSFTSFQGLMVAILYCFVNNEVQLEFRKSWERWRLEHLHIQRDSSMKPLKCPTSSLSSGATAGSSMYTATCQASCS

GLP-1(9-36)-NH2
lower binding affinity compared to the intact peptide (GLP-1 receptor [1]): 100 fold | decrease in agonistic activity (GLP-1 receptor [2]): > 10000 fold
